# Data published in patent publication US5747488A, “2-aryl-5,11-dihydro-6H-dipyrido[3,2-B:2',3'-E][1, 4]diazepines and their use in the treatment of HIV infection” (Boehringer Ingelheim Pharmaceuticals, Inc., priority 1996, dated 1998).
# Key:
# MTT assay (cytotoxicity) = assay type: cell-based; details: human; H9 cells, five days
# Protocol: In order to roughly assess the cytotoxicity of the compounds provided by the invention, several such compounds were tested in the MTT Assay described below. Compounds having a relatively high CC50 are preferred.
# The MTT [3-(4,5-dimethylthiazol-2-yl)-2,5 diphenyl tetrazolium bromide) assay is based on cleavage of tetrazolium bromide by metabolically active cells, resulting in a highly quantitative blue color. This assay has been previously described (1) but has been optimized for the purposes of the testing reported herein.
# The H9 cell line (2), an established human lymphoma suspension cell line grown in RPMI 1640 supplemented with 10% fetal bovine serum, is used as the target cell line in the assay. Cells (100 μL) are plated in microtest plate wells at a concentration of 10^5 cells per mL in the presence of varying concentrations of inhibitor. The cells are incubated at 37° C. in a humidified CO2 incubator. Five days later, 20 μL of MTT (5 mg/mL in RPMI 1640, sonicated, 0.2 micron filtered, and stored at 4° C.) is added to each well. After 4 hours additional incubation at 37° C., 60 μL of Triton-X is added to each well and thoroughly mixed to aid the solubilization of the crystals. Absolute ethanol (5 μL) is added to each well and the resulting mixture is incubated for 30 minutes at 60° C. and immediately read on a plate reader (Dynatech) at a wavelength of 570 nm. […]
# [1] = molecular target: T1, HIV-1 reverse transcriptase, wild type (WT) (Human immunodeficiency virus type 1 (BRU ISOLATE), UniProt P03367); test: Reverse transcriptase (RT) assay, wild type enzyme (RNA-dependent DNA polymerase activity); assay type: biochemical, Human Immunodeficiency Virus (HIV-1), LAV strain; details: read-out: RT (WT) Assay % inh. (1 μM)
# T1 construct: recombinant clone pBRTprtl+ (vector pIBI21, lac promoter) in E. coli JM109
# Text: Utilizing the Reverse Transcriptase (RT) Assay described below, compounds can be tested for their ability to inhibit the RNA-dependent DNA polymerase activity of HIV-1 RT. Certain specific compounds described in the Examples which appear below, were so tested.
# Among the enzymes for which Human Immunodeficiency Virus (HIV-1) encodes is a reverse transcriptase (1), so-named because it transcribes a DNA copy from an RNA template. This activity can be quantitatively measured in a cell-free enzyme assay, which has been previously described (2), and is based upon the observation that reverse transcriptase is able to use a synthetic template [poly r(C) primed with oligo d(G)] to transcribe a radio-labelled, acid-precipitable DNA strand utilizing ^3 H-dGTP as a substrate. The assay described below utilizes the wild type (WT) enzyme, which is the predominant form of the enzyme observed in patients infected with HIV-1. Utilization of the mutant RT enzyme (Y181C, prepared by site-directed mutagenesis in which the tyrosine residue at codon 181 has been replaced by a cysteine residue) and analogous assay conditions allows compounds to be evaluated for their effectiveness at inhibiting this mutant enzyme. […]
structure (smiles),measurement,setting,value
"CCN1c2ncccc2-c2ncc(C)n2-c2ccc(-c3cn[nH]c3)nc21 [Example 1, 8-Ethyl-1-methyl-10-(4-pyrazolyl)imidazo[2',3':6,5]dipyrido[3,2-b:2',3'-e][1,4]diazepine]",CC50 at 120 h,MTT assay (cytotoxicity),> 100 µM
same,inhibition at 1 µM,[1],95%
